Laboratory results from patent US20100086513A1, “Method for Effecting Antimicrobial Activity Using Polyamine Analogues” (priority 2008, published 2010).
In brackets after ≈: the same amount, converted by molar mass.

Tests used:
Y. pestis KIM6+ [1] = assay type: cell-based, Yersinia pestis
[2] = test system: E. coli K12 cells + pBR322; assay type: cell-based, Escherichia coli
E. coli K12 = assay type: cell-based, Escherichia coli
Y. pestis KIM6+ [3] = assay type: cell-based, Yersinia pestis; remark: listed apart in the source

## N=C(NCCCNCCCCCCCNCCCNC(=N)NC(=N)NCCC(c1ccccc1)c1ccccc1)NC(=N)NCCC(c1ccccc1)c1ccccc1 [XBI-54-13B]
Y. pestis KIM6+ [1]
  MIC: 1.56 µg/mL (≈ 1.95 µM)
[2]
  release of β-lactamase (Nitrocefin absorption at 486 nm): quickly causes a release of β-lactamase

## NCCCCNCCCN [spermidine]
E. coli K12
  transport of [14C] spermidine: able to transport a significant amount
Y. pestis KIM6+ [3]
  transport of [14C] spermidine: effectively unable to transport

## NCCCCN [putrescine]
E. coli K12
  uptake of [14C] putrescine: ability to transport significant amounts
Y. pestis KIM6+ [3]
  uptake of [14C] putrescine: ability to transport significant amounts

## CC[C@H](C)[C@H](NC(=O)CN)C(=O)NCC(=O)N[C@@H](C)C(=O)N[C@H](C(=O)N[C@@H](CC(C)C)C(=O)N[C@@H](CCCCN)C(=O)N[C@H](C(=O)N[C@@H](CC(C)C)C(=O)N[C@H](C(=O)N[C@H](C(=O)NCC(=O)N[C@@H](CC(C)C)C(=O)N1CCC[C@H]1C(=O)N[C@@H](C)C(=O)N[C@@H](CC(C)C)C(=O)N[C@H](C(=O)N[C@@H](CO)C(=O)N[C@@H](Cc1c[nH]c2ccccc12)C(=O)N[C@H](C(=O)N[C@@H](CCCCN)C(=O)N[C@@H](CCCNC(=N)N)C(=O)N[C@@H](CCCCN)C(=O)N[C@@H](CCCNC(=N)N)C(=O)N[C@@H](CCC(N)=O)C(=O)N[C@@H](CCC(N)=O)C(N)=O)[C@@H](C)CC)[C@@H](C)CC)[C@@H](C)O)[C@@H](C)O)C(C)C)C(C)C [mellitin]
[2]
  release of β-lactamase (Nitrocefin absorption at 486 nm): a reaction of Nitrocefin to β-lactamase occurs almost immediately
